According to patent publication US8173428B2, “LNA oligonucleotides and the treatment of cancer” (Santaris Pharma A/S, priority 2004, dated 2012):
Oligonucleotides are written 5' to 3', each unit as a sugar letter and its base; * is a phosphorothioate linkage, no mark a phosphodiester; rarer units and linkages stand in square brackets, end groups in braces. Plain capitals give the bases only. l = locked nucleic acid (LNA); [5mC] = 5-methylcytosine; d = 2'-deoxy (DNA)

How the values were obtained:
Survivin protein = assay: Tumour analysis: Survivin protein by Western blotting after intratumoural injection; assay type: in vivo, Balb/cA-nu mice; details: 25 mg/kg intratumoral, 6 times over 2 weeks, sampling 24 hours after last dose, versus saline
Description: Model: PC-3 human prostate cancer cells (ECACC) are mixed with Matrigel and injected s.c. into both flanks of female Balb/cA-nu mice on Day 0.
Administration: Oligonucleotides i.p. (see FIG. 8) or intratumoural (see FIG. 9), Taxol i.v., all according to schedule
cDNA synthesis: First strand synthesis was performed using OmniScript Reverse Transcriptase kit according to the manufacturer's instructions (Qiagen). […] Protein levels were analysed on individual tumours by western blotting (see FIG. 9). Real time PCR analysis: To determine the relative Survivin mRNA level treated and untreated tumours, the generated cDNA was used in quantitative PCR analysis using an iCycler from BioRad. The cDNA was diluted 5-fold and 8 μl was mixed with 52 μl Taqman probe master mix containing 30 μl Platinum Quantitative PCR SuperMix UDG 2×PCR master mix (Invitrogen), 3 μl 20× Taqman probe and primer mix (forward primer: 5′-[…]-3′ (SEQ ID NO. 29), final 0.9 μM. Reverse primer: 5′-[…]-3′ (SEQ ID NO. 30), final 0.6 μM and taqman probe: FAM-5′-[…]-TAMRA-3′ (SEQ ID NO. 31), final 0.1 μM) and 19 μl H2O. […] To normalize any variance in sample preparation, the endogenous GAPDH mRNA was quantified using a pre-developed Taqman assay reagent from Applied Biosystems (4310884E) according to manufacture's instructions. […] Total protein concentrations were measured using a BCA protein assay kit (Pierce). […]

[1] = Oligonucleotide content in cynomolgus monkey tissues (4 weeks repeat dose study); assay type: in vivo, cynomolgus monkeys; details: i.v. twice weekly for four weeks, then 4 weeks untreated
Description: In an i.v. 4 weeks repeat dose toxicity study in cynomolgus monkeys SEQ ID NO. 2 was administered at doses of 0, 6, 15 and 60 mg/kg/occasion twice weekly for four weeks. In the groups of animals receiving 0, 15 or 60 mg/kg/occasion some animals were followed for a recovery period of 4 weeks without treatment.
Tissues including liver and kidney samples were snap frozen and stored at −70° C. for subsequent analysis.
Tissues (˜100 mg) is weighed off (tissue is kept on dry-ice before and after weighing). 500 μl extraction buffer containing proteinase K (1 mg/ml) is added. The tissue is homogenized mechanically and the homogenate is incubated over night at 37° C.
Reference samples are prepared by dissolving SEQ ID NO. 2 in extraction buffer at the relevant concentration range. Exactly 100 mg liver tissue from un-treated animals is weighed off (kept on dry-ice before and after weighing). Extraction buffer (with proteinase K, 1 mg/ml) containing the reference material is added to the tissue samples to a total volume of 0.5 ml. The tissue is mechanically homogenized and is incubated over night at 37° C. The detection signal of SEQ ID NO. 2 from these samples is used to prepare a standard curve covering the lowest and the highest concentrations found in the treated animals.
Tissue samples are transferred to 2 ml microtubes with screw caps. […]

5′-^MeCsTs^MeCsAsastscscsastsgsgs^MeCsAsGsc-3′ (l[5mC]*lT*l[5mC]*lA*dA*dT*dC*dC*dA*dT*dG*dG*l[5mC]*lA*lG*dC) [SEQ ID NO. 2]
Survivin protein level in tumours (Survivin protein): reduced levels of both mRNA and Survivin protein
Content in liver of recovery animals [1]: detectable
